Entries after “also recorded” stand apart in the source; their conditions may differ. Like-named read-outs stand apart in the source and are kept apart here.
Key:
RML scrapie [1] = assay type: in vivo, C57Bl6 mice; settings: i.c. RML scrapie
[2] = system: PrPSc in spleen (RML scrapie); assay type: in vivo, C57Bl6 mice; settings: i.p. RML scrapie; 25 μL 100 mM i.p. 14 days then 50 mg/kg oral; day 35 post infection
[3] = system: PrP^Sc accumulation in brain (RML scrapie); assay type: in vivo, C57BL/6 mice; settings: brain at 120 dpi
[4] = system: PrP^Sc accumulation in spleen (RML scrapie); assay type: in vivo, C57BL/6 mice; settings: i.p. infection; 34 days of 1 mg compound per day in DMSO+peanut butter; spleen at 35 dpi
RML scrapie [5] = assay type: in vivo, C57BL/6 mice
RML scrapie [6] = assay type: in vivo, C57BL/6 mice; settings: different times and schedules of treatment; p<0.01
[7] = system: PrPSc in brain (RML scrapie)
[8] = Pharmacokinetic analysis of anle138b, compound in brain and serum by LC-MS (Example 15); settings: single dose, non-infected mice
α-synuclein = α-synuclein (Homo sapiens, UniProt P37840); test: Inhibition of the formation of α-synuclein aggregates (intermediate II oligomers), confocal single molecule spectroscopy (Example 16); assay type: biochemical
[9] = 5 mg per day orally in DMSO+peanut butter from 80 or 120 dpi
[10] = i.c. RML scrapie, treatment from day 80

Question: For `Brc1cccc(-c2cc(-c3ccc4c(c3)OCO4)n[nH]2)c1` [anle138b, 3-(1,3-Benzodioxol-5-yl)-5-(3-bromophenyl)-1H-pyrazole], which “effect of treatment on survival time” value (RML scrapie [1]; daily i.p. for 14 days from day 80 post infection) is on record?
Answer: significantly prolongs the survival times

Question: And the “average survival time prolonged by, in comparison to DMSO vehicle group” value (RML scrapie [1]; i.p. 25 μL per day of 100 mM compound for 14 days from day 80 post infection)?
Answer: 14.9 days

Question: What about the “PrPSc deposits in spleen tissue (immunohistology)” value [2] of the same compound?
Answer: reduced

Question: What about the “splenic PrPSc level (immunoblot / dot blot) compared to vehicle-treated mice” value [2] of the same compound?
Answer: strong reduction in PrPSc levels; also recorded: decreases significantly

Question: What about the “Inhibition [%] of PrPSc accumulation in brain, protocol a” value ([3]; 1 mg compound per day orally in DMSO+peanut butter from 80 dpi, relative to DMSO-treated (0%) and start of treatment (100%)) of the same compound?
Answer: 69%

Question: What about the “PrPSc accumulation in brain, dose dependence” value ([3]; different amounts orally in DMSO+peanut butter from 80 dpi) of the same compound?
Answer: reduced PrP^Sc accumulation in brain in a dose-dependent manner

Question: And the “Inhibition [%] of PrPSc accumulation in spleen, protocol c” value [4]?
Answer: 62%

Question: And the “PrPSc accumulation in brain (stained sections, brain homogenates)” value (RML scrapie [5]; [9])?
Answer: strongly reduced

Question: What about the “apoptotic cells in the cerebellum (neuronal cell death)” value (RML scrapie [5]; [9]) of the same compound?
Answer: inhibition of neuronal cell death

Question: And the “time for which weight loss is prevented” value (RML scrapie [5]; 5 mg per day orally, treatment from 80 dpi onwards)?
Answer: ~100 days

Question: What about the “time for which weight loss is inhibited” value (RML scrapie [5]; 5 mg per day orally, treatment from 120 dpi) of the same compound?
Answer: ~70 days

Question: And the “survival times after challenge with RML scrapie” value (RML scrapie [6])?
Answer: significantly prolonged the survival times

Question: And the “Inhibition [%] of PrPSc accumulation in brain, protocol b” value ([7]; 0.84 mg per day i.p. 14 days from 80 dpi then 2x5 days 1 mg by gavage, brain at 106 dpi, relative to DMSO-treated (0%) and start of treatment (100%))?
Answer: 108%

Question: What about the “change of relative PrPSc levels in brain compared to untreated control at day 80” value [7, 10] of the same compound?
Answer: slighty decreased

Question: What about the “pathological changes / apoptotic cells in cerebellar granule cell layer (H&E stained brain slices)” value [7, 10] of the same compound?
Answer: reduction of pathological changes

Question: And the “survival time until terminal stage of scrapie infection” value ([7]; i.c. RML scrapie, treatment from day 80, two anle138b mice additionally fed compound in peanut butter day 109 to 136)?
Answer: longer survival times

Question: And the brain penetration [8]?
Answer: good brain penetration

Question: What about the oral bioavailability [8] of the same compound?
Answer: good oral bioavailability

Question: For `FCCn1nc(-c2ccc3c(c2)OCO3)cc1-c1cccc(Br)c1` [sery363a], which “reduction of PrPC accumulation compared to DMSO-treated controls” value ([3]; 3 mg compound per day orally in DMSO+peanut butter from 80 dpi) is on record?
Answer: 35%

Question: Which “reduction of PrPC accumulation compared to DMSO-treated controls” value ([3]; 1 mg compound per day orally in DMSO+peanut butter from 80 dpi) does the source give for `Nc1ccc(-c2cc(-c3cccc(Cl)c3)n[nH]2)cc1` [sery383] here?
Answer: 30%

Question: What about the “inhibition of alpha-synuclein aggregation” value (α-synuclein) of the same compound?
Answer: highly active

Question: And the “Intermediate II (formation of intermediate II oligomers in comparison to controls without compound)” value (α-synuclein; compound 10 μM, aggregation induced by DMSO and 10 μM FeCl3)?
Answer: <5%
